Assays:
[1] = tested on: glutathione S-transferase pi2 (GSTp2) mRNA; assay: Real time PCR of GSTp2 mRNA in substantia nigra after MPTP; assay type: in vivo, mouse; settings: for expression of GSTp2: C57B1/6 mice; for GSTp2 levels: SW mice
Description: Using real time PCR technology we are able to measure relative or absolute mRNA levels in from very small sample pools. The RT-PCR reaction includes a forward primer, a primer with a fluorescent 5′ reporter dye and a 3′ quencher dye, and a reverse primer, constructed to hybridize with the target of interest. The 5′ to 3′ activity of the DNA polymerase cleaves the primer between the reporter and the quencher only if the primer hybridizes to the target. The primer is then displaced from the target, polymerization of the strand continues, and the produce accumulates with each cycle. The exponential amplification of product correlates with the initial number of target molecules when normalized to an endogenous reference, and the threshold cycle calculated (a cycle during which there is an exponential accumulation of produce occurring), as long as the efficiency of the target amplification and the efficiency of the reference amplification are approximately equal. To examine the mRNA expression levels of GSTp2, we used real time PCR analysis to examine baseline levels in C57B1/6 and SW mice. […] The expression pattern in SW mice is different.
Higuchi et al (Higuchi R, et al., Simultaneous Amplification and Detection of Specific DNA Sequences, Biotech. (NY) 10:413-17 (1992)) pioneered the analysis of PCR kinetics by constructing a system that detects PCR products as they accumulate. This “real-time” system includes the intercalator ethidium bromide in each amplification reaction, an adapted thermal cycler to irradiate the samples with ultraviolet light, and detection of the resulting fluorescence with a computer-controlled cooled CCD camera. mRNA amplification produces increasing amounts of double-stranded DNA, which binds ethidium bromide, resulting in an increase in fluorescence. By plotting the increase in fluorescence versus cycle number, this method allows one to make precise quantitative measurements of mRNA expression. […]
Higuchi et al (Higuchi R, et al., Simultaneous Amplification and Detection of Specific DNA Sequences, Biotechnology (N Y) 10:413-17 (1992)) pioneered the analysis of PCR kinetics by constructing a system that detects PCR products as they accumulate. This “real-time” system includes the intercalator ethidium bromide in each amplification reaction, an adapted thermal cycler to irradiate the samples with ultraviolet light, and detection of the resulting fluorescence with a computer-controlled cooled CCD camera. Amplification produces increasing amounts of double-stranded DNA, which binds ethidium bromide, resulting in an increase in fluorescence. By plotting the increase in fluorescence versus cycle number, this method […] allows one to make precise quantitative measurements of mRNA expression.
We will be quantitating levels of glutathione S-transferase pi2 mRNA using this technique in place of traditional Northern blots since we have a limited amount of material to generate mRNA and real-time PCR amplification can give precise results with a small amount of sample material. […] Quantitative measurements are made based on the amount of fluorescence detected by amplification of the intervening primer. Details of this method are presented in numerous papers such as (Freeman W M, et al., Quantitative RT-PCR: Pitfalls and Potential. Biotechniques 26:112-122, 124-115 (1999)) as well as from the ABI website. […]

[2] = tested on: postnatal substantia nigra (SN) neurons; assay: MPTP-induced cell loss in postnatal substantia nigra cultures; assay type: cell-based, mouse; settings: for loss of T-positive neurons: MPTP 50×10-9
[3] = tested on: embryonic midbrain neurons; settings: C57B1/6 and Swiss-Webster cultures from embryonic midbrain; cited from earlier work
[4] = tested on: SNpc neurons; assay: Count of TH-positive SNpc cells one week after subcutaneous MPTP; settings: 80 mg/kg MPTP SC (4 x 20 mg/kg)
Description: C57BL/6J (Jackson Laboratory), Swiss-Webster (SWR, Harlan) and C57BL/6J×SWR used in these experiments were between 3 and 5 months of age. […] All animals were generated within our vivarium at St. Jude Children's Hospital and were maintained on a 12:12 hour light: dark cycle with ad libitum food and water. Animals were treated in accord with Animal Care and Use Committee requirements. The analysis presented here is based on neuroanatomical and morphometric data from 58 animals, all of which were genotyped as described below.
Each animal was given a total of 80 mg/kg of MPTP, using a dosage regimen of 4 equal subcutaneous injections of 20 mg/kg, one given every 2 hours. Mice were monitored over the next 24 hours for the degree of mortality and the presence of seizures. […]
Prior to counting TH-positive cells, the rostral to caudal boundaries of the SNpc were identified (German, D. C., et al., The Neurotoxin MPTP Causes Degeneration of Specific Nucleus A8, A9 and A10 Dopaminergic Neurons in the Mouse, Neurodegeneration, 5:299-312 (1996)). […] TH-positive cells within the SNpc in one section per slide were counted using a 20× objective (total magnification 200×). […] The number of cells in the SNpc from several animals were also counted using unbiased stereological measurements using the Bioquant image analysis system (R & 1 Biometrics, Nashville, Tenn.).

Q: Which results are given for `CN1CC=C(c2ccccc2)CC1` [MPTP, 1-methyl-4-phenyl-1,2,3,6-tetrahydropyridine]?
A: expression of GSTp2 ([1]; 24 hours after MPTP): 50%; expression of GSTp2 ([1]; eight hours after the first injection of MPTP): increases; GSTp2 levels ([1]; 8 hours after administration of MPTP): decrease; GSTp2 levels ([1]; 24 hours after MPTP): return to baseline levels; lower induction of glutathione S-transferase pi2 in C57B1/6 mice compared to Swiss-Webster ([1]; forty eight hours after MPTP administration): 50%; loss of T-positive neurons ([2]; SN cultures derived from SWR mice): 10±3%; loss of T-positive neurons ([2]; SN cultures from C57B1/6 mice): 50±5%; percent cell loss in vitro as fraction of the in vivo value ([2]; in vitro SN culture versus in vivo): approximately 80%; cell death [3]: little cell death; number of SNpc neurons following MPTP treatment ([4]; C57B1/6 animals): 3300±200; number of SNpc neurons following MPTP treatment ([4]; SWR animals): 5480+/−239

Reference: patent publication US20040219600A1, “Method for determining sensitivity to environmental toxins and susceptibility to parkinson's disease” (priority 2002, published 2004)
